From patent US10798942B2, “Abiotic stress tolerance” (SYNGENTA PARTICIPATIONS AG, priority 2016, dated 2020)

Experiments:
rice plants [1] = experiment: Multi-year analysis for 2015-2016 of field trials (17 trials); assay type: in vivo, Oryza sativa L.; details: 2015-2016, 17 trials; for Thousand grain weight (g/1000 seed): UTC 17.01; for Empty spikelets (number per 12 rice hills): UTC 5636; for Yield at 14% MC (kg/ha): UTC 6318
Protocol: (§1) Rice (Oryza sativa L.) of the local varieties ADT43, ADT45 and NK5251 were mechanically transplanted at four plants per hill with a plant spacing of 16 cm and a row spacing of 30 cm. All trials were performed in good level of water management. Fertilizer was applied in accordance with the best local practice across the trial area. Commercial treated seeds (no neonicotinoids as seed treatments) were used. Weed control was according to the best local practice in order to provide excellent weed control. Foliar fungicides and insecticides were applied according to common practice (no products that contain neonicotinoids or strobilurins). The trial design was a randomized bloc design. Plot size was 40 m^2 (4 m width [12 rows] by 10 m row length). Each trial had four replicates. In total, eleven trials were conducted. The compound of formula (Ia) was applied at a rate of 10 g ai/ha with small-plot hand-held boom sprayer. Application of the compound was as broadcast foliar spray in close proximity to leaf/canopy surface (25-40 cm distance from the crop). The used spray volumes were between 250 L/ha and 500 L/ha. Application was done either at panicle initiation (BBCH 30), at panicle formation (BBCH 32), at spikelet differentiation (BBCH 35), at meiosis (BBCH 39) or at heading (BBCH 51). In some experiments, the compound was applied twice (2×10 g ai/ha) at consecutive growth stages (i.e., BBCH 30+32, BBCH 32+35, BBCH 35+39, and BBCH 39+51). Tolerance to heat stress was assessed by measuring the following yield components: number of panicles per area, number of grains per panicle, percentage of ripened (filled) grains, number of tillers per area, percentage of productive tillers, grain yield per area at 14% moisture and thousand grain weight (TGVV). Further trials were conducted in the Tamil Nadu rice production area (India) in 2016 using the protocol as described above using rice variety ADT45, with treatment timings of panicle initiation (BBCH 30), panicle formation (BBCH 32), spikelet differentiation (BBCH 35) and meiosis (BBCH 39) only. The compound of formula (Ia) was applied at a rate of 10 g Al/ha. Grain yield was measured at 14% moisture content (MC).

rice plants [2] = experiment: Further field trials 2016, rice variety ADT45 (7 trials); assay type: in vivo, Oryza sativa L.; details: 10 g AI/ha; for Average yield increase compared to UTC (%): 7 trials 2016; for Yield at 14% MC (kg/ha): 7 trials 2016, mean daily min 25.13° C., max 34.13° C., UTC 6512
Protocol: as §1

COc1cccc(Nc2nc(F)nc3[nH]cnc23)c1 [formula (Ia)]
Empty spikelets, % change compared to UTC (rice plants [1]; BBCH 30 at application): −12.5%
Thousand grain weight, % change compared to UTC (rice plants [1]; BBCH 30 at application): +1.3%
Yield at 14% MC, % change compared to UTC (rice plants [1]; BBCH 30 at application): +4.1%
Thousand grain weight (g/1000 seed) (rice plants [1]; BBCH 30 at application): 17.24 g/1000 seed
Empty spikelets (number per 12 rice hills) (rice plants [1]; BBCH 30 at application): 4927 number per 12 rice hills
Yield at 14% MC (kg/ha) (rice plants [1]; BBCH 30 at application): 6583 kg/ha
Empty spikelets, % change compared to UTC (rice plants [1]; BBCH 32 at application): −9.2%
Thousand grain weight, % change compared to UTC (rice plants [1]; BBCH 32 at application): +1.4%
Yield at 14% MC, % change compared to UTC (rice plants [1]; BBCH 32 at application): +6.5%
Thousand grain weight (g/1000 seed) (rice plants [1]; BBCH 32 at application): 17.25 g/1000 seed
Empty spikelets (number per 12 rice hills) (rice plants [1]; BBCH 32 at application): 5115 number per 12 rice hills
Yield at 14% MC (kg/ha) (rice plants [1]; BBCH 32 at application): 6727 kg/ha
Empty spikelets, % change compared to UTC (rice plants [1]; BBCH 35 at application): −7.6%
Thousand grain weight, % change compared to UTC (rice plants [1]; BBCH 35 at application): +1.3%
Yield at 14% MC, % change compared to UTC (rice plants [1]; BBCH 35 at application): +6.3%
Thousand grain weight (g/1000 seed) (rice plants [1]; BBCH 35 at application): 17.23 g/1000 seed
Empty spikelets (number per 12 rice hills) (rice plants [1]; BBCH 35 at application): 5206 number per 12 rice hills
Yield at 14% MC (kg/ha) (rice plants [1]; BBCH 35 at application): 6713 kg/ha
Empty spikelets, % change compared to UTC (rice plants [1]; BBCH 39 at application): −8.3%
Thousand grain weight, % change compared to UTC (rice plants [1]; BBCH 39 at application): +1.4%
Yield at 14% MC, % change compared to UTC (rice plants [1]; BBCH 39 at application): +5.2%
Thousand grain weight (g/1000 seed) (rice plants [1]; BBCH 39 at application): 17.25 g/1000 seed
Empty spikelets (number per 12 rice hills) (rice plants [1]; BBCH 39 at application): 5170 number per 12 rice hills
Yield at 14% MC (kg/ha) (rice plants [1]; BBCH 39 at application): 6643 kg/ha
Average yield increase compared to UTC (%) (rice plants [2]; BBCH 30 at application): +3.5%
Yield at 14% MC (kg/ha) (rice plants [2]; BBCH 30 at application): 6741 kg/ha
Average yield increase compared to UTC (%) (rice plants [2]; BBCH 32 at application): +4.7%
Yield at 14% MC (kg/ha) (rice plants [2]; BBCH 32 at application): 6820 kg/ha
Average yield increase compared to UTC (%) (rice plants [2]; BBCH 35 at application): +6.4%
Yield at 14% MC (kg/ha) (rice plants [2]; BBCH 35 at application): 6931 kg/ha
Average yield increase compared to UTC (%) (rice plants [2]; BBCH 39 at application): +3.6%
Yield at 14% MC (kg/ha) (rice plants [2]; BBCH 39 at application): 6757 kg/ha
